Reference: US20040019118A1, “NMDA receptor antagonists and their use in inhibiting abnormal hyperphosphorylation of microtubule associated protein tau” (priority 2002, published 2004)

What was measured:
MAPK = MAPK activity in extracts of treated hippocampal slice cultures; type: cell-based, rat; conditions: after 0.3 mM glutamate; 10 μM Memantine or 15 μM MK801
Method: The rats were anesthetized with ketamine (100 mg/kg body weight) and decapitated and the hippocampi were dissected out and sliced into 400 um coronal sections by a McIllwain tissue chopper. Select slices with uninterrupted bright transparent neuronal layers were plated, 1-3 slices/filter, onto Millicell CM filters (Millipore, Bedford, Mass.). […] After 7 DIV, the cultures were maintained in physiological potassium containing 5% horse serum medium at 35° C. for at least 20 days before any treatment was applied. When the slices were treated, the reagents were applied into the culture medium. At different time points, the slices collected with a brush were washed twice in homogenizing buffer (50 mM HEPES, pH 7.0, 10 mM β-merceptoethanol [BME], 1 mM EDTA, 1 mM EGTA, 0.1 mM phenylmethyl sulfonyl fluoride [PMSF], 2.0 mM benzamidine and 2.0 μg/ml each of aprotinin, leupeptin and pepstatin) and homogenized at 4° C. using a Teflon-glass homogenizer. The homogenate was then divided into two parts, one was centrifuged at 16000×g for 15 min and the supernatant was used to assay activities of PP-2A and PP-1. The rest of the homogenate was diluted 1:1 with a phosphatase inhibitor cocktail (20 mM β-glycerophosphate, 2 mM Na3VO4 and 100 mM NaF, pH 7.0) and either used for Western blots or centrifuged at 16000×g for 15 min and the resulting supernatant used to determine the kinase activities.
Immobilized protein G (Pierce, Rockford, Ill.), 20 μl, was mixed in 50 mM Tris, pH 7.4, 150 mM NACl, 10 mM NaF, 1.0 mM Na3VO4, 2.0 mM EGTA, 1 mM PMSF, 5 μg/ml leupeptin, 5 μg/ml aprotinin, 2 μg/ml pepstatin, 25 μg/ml phosphoramidon. After incubation at 4° C. overnight, the mixture was centrifuged and the beads were washed three times. The beads were then resuspended in 50 mM Tris, pH 7.4, containing 10 mM MgCl2. MAPK substrate peptide (UBI, Lake Placid, N.Y.) was employed for the MAPK assay. […]

PP-2A [1] = target: T1, PP-2A (Homo sapiens, UniProt P67775); conditions: read-out: in vitro IC50; cited from earlier work
T1 sequence (P67775 whole entry): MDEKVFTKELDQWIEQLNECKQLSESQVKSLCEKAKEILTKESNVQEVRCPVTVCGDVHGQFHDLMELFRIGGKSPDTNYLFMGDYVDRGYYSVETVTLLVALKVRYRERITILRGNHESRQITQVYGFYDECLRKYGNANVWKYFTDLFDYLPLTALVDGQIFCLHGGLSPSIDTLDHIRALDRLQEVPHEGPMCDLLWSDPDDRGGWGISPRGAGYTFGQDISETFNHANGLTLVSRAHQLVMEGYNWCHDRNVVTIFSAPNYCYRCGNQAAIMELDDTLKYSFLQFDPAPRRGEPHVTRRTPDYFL

PP-2A [2] = target: T1, PP-2A; parameters: treatment of the SY5Y human neuroblastoma in culture with 10 nM OA for 24 h; host or cells: SY5Y human neuroblastoma cells (endogenous); conditions: 10 nM OA, 24 h; cited from earlier work

SMILES	effect on MAP kinase activity (MAPK)	IC50 (PP-2A [1])	inhibition of PP-2A (PP-2A [2])
CC12CC3CC(C)(C1)CC(N)(C3)C2 [Memantine, 1-amino-3,5-dimethyl adamantane]	no effect	–	–
C=C1[C@@H](O)[C@@H]2O[C@]3(CC[C@H](/C=C/[C@@H](C)[C@@H]4CC(C)=C[C@@]5(O[C@H](C[C@@](C)(O)C(=O)O)CC[C@H]5O)O4)O3)CC[C@H]2O[C@@H]1[C@@H](O)C[C@H](C)[C@H]1O[C@@]2(CCCCO2)CC[C@H]1C [OA, Okadaic Acid]	–	~1 nM	complete inhibition
